Reference: US8853233B2, “Broad-spectrum anti-cancer treatment based on iminocamptothecin derivatives” (Sigma-Tau Industrie Farmaceutiche Riunite S.p.A., priority 2007, dated 2014)

Tests used:
Set-up in all cases: species or system nude athymic mice
[1] = system: FaDu squamous pharynx carcinoma xenograft; assay: In vivo antitumoral activity, FaDu tumor xenograft
Description: (§1) Exponentially growing tumor cells were injected s.c. into nude athymic mice. The number of tumor cells was previously chosen by a growth curve. […] Animals were housed under a light-dark cycle, keeping temperature and humidity constant. Parameters of the animal rooms were assessed as follows: 22±2° C. temperature, 55±10% relative humidity, about 15-20 filtered air changes/hour and 12 hour circadian cycle of artificial light (7 a.m., 7 p.m.). At request, the environmental conditions were monitored and the data are retained in Animal Housing Archives. Drinking water was supplied ad libitum. Each mouse was offered daily a complete pellet diet (GLP 4RF21, Mucedola) throughout the study. The analytical certificates of animal food and water are retained at Sigma-Tau premises. All animals were weighed before starting the experiment and were subdivided into the different dosage groups. Each cage was identified by a paper tag indicating: cage number, group, date of tumor injection, starting date of treatment, name of the test item, dose and route of administration, date of sacrifice.
(§2) Tumor growth was followed by biweekly measurements of tumor diameters with a Vernier caliper. Tumor volume (TV, mm^3) was calculated as: [length (mm)×width (mm)^2]/2, where the width and the length are the shortest and the longest diameters of each tumor, respectively.
(§3) LTS (long term survivors) were considered mice without tumor 90 days upon the tumor injection.

[2] = system: MiaPaCa2 pancreas ca. xenograft; assay: In vivo antitumoral activity, MiaPaCa2 tumor xenograft; settings: q4d × 4
Description: as §1, §2, §3

[3] = system: A431 epidermoid skin ca. xenograft; assay: In vivo antitumoral activity, A431 tumor xenograft; settings: q4d × 4
Description: as §1, §2, §3

[4] = system: HT1376 bladder ca. xenograft; assay: In vivo antitumoral activity, HT1376 tumor xenograft; settings: q4d × 4
Description: as §1, §2, §3

[5] = system: 501Mel melanoma xenograft; assay: In vivo antitumoral activity, 501Mel tumor xenograft; settings: 501Mel xenograft, q4d × 4
Description: as §1, §2, §3

[6] = system: MESO mesothelioma xenograft; assay: In vivo antitumoral activity, MESO tumor xenograft; settings: q4d × 4
Description: as §1, §2, §3

[7] = system: A253 epidermoid submaxillary salivary gland carcinoma xenograft; assay: In vivo antitumoral activity, A253 tumor xenograft; settings: q4d × 4
Description: as §1, §2
LTS (long term survivors) were considered mice without tumor 90 days upon the tumor injection. […]

[8] = system: KB squamous oral head and neck carcinoma xenograft; assay: In vivo antitumoral activity, KB tumor xenograft; settings: q4d × 4
Description: as §1, §2, §3

N.N.[Cl][Pt][Cl] [cisplatin]
CR (complete response) ([1]; 4.7 mg/kg i.v., q7d × 3): 1/8 | LCK (log10 cell kill) ([1]; 4.7 mg/kg i.v., q7d × 3): 1.6 | LTS (long term survivors) ([1]; 4.7 mg/kg i.v., q7d × 3): 0/8 | TVI % (tumor volume inhibition) ([1]; 4.7 mg/kg i.v., q7d × 3): 93% | CR (complete response) ([1]; 7 mg/kg i.v., q7d × 3): 1/8 | LCK (log10 cell kill) ([1]; 7 mg/kg i.v., q7d × 3): 3.9 | LTS (long term survivors) ([1]; 7 mg/kg i.v., q7d × 3): 3/8 | TVI % (tumor volume inhibition) ([1]; 7 mg/kg i.v., q7d × 3): 99%

CCc1c2c(nc3ccc(OC(=O)N4CCC(N5CCCCC5)CC4)cc13)-c1cc3c(c(=O)n1C2)COC(=O)[C@]3(O)CC [irinotecan, reference compound]
CR (complete response) ([2]; 60 mg/kg i.v.): 0/7 | LCK (log10 cell kill) ([2]; 60 mg/kg i.v.): 1.23 | LTS (long term survivors) ([2]; 60 mg/kg i.v.): 0/7 | CR (complete response) ([3]; 50 mg/kg i.v.): 12/12 | LCK (log10 cell kill) ([3]; 50 mg/kg i.v.): 6.8 | LTS (long term survivors) ([3]; 50 mg/kg i.v.): 9/12 | CR (complete response) ([4]; 50 mg/kg i.v.): 0/10 | LCK (log10 cell kill) ([4]; 50 mg/kg i.v.): 0.2 | LTS (long term survivors) ([4]; 50 mg/kg i.v.): 0/10 | CR (complete response) ([5]; 50 mg/kg i.v.): 0/10 | LCK (log10 cell kill) ([5]; 50 mg/kg i.v.): 1.3 | LTS (long term survivors) ([5]; 50 mg/kg i.v.): 0/10 | CR (complete response) ([1]; 30 mg/kg i.v., q4d × 4): 8/8 | LCK (log10 cell kill) ([1]; 30 mg/kg i.v., q4d × 4): >>3.9 | LTS (long term survivors) ([1]; 30 mg/kg i.v., q4d × 4): 8/8 | CR (complete response) ([1]; 60 mg/kg i.v., q4d × 4): 8/8 | LCK (log10 cell kill) ([1]; 60 mg/kg i.v., q4d × 4): >>3.9 | LTS (long term survivors) ([1]; 60 mg/kg i.v., q4d × 4): 8/8 | CR (complete response) ([6]; 50 mg/kg i.v.): 0/12 | LCK (log10 cell kill) ([6]; 50 mg/kg i.v.): 0.8 | LTS (long term survivors) ([6]; 50 mg/kg i.v.): 0/12 | CR (complete response) ([7]; 30 mg/kg i.v.): 0/8 | LCK (log10 cell kill) ([7]; 30 mg/kg i.v.): 0.1 | LTS (long term survivors) ([7]; 30 mg/kg i.v.): 0/8 | CR (complete response) ([7]; 60 mg/kg i.v.): 0/8 | LCK (log10 cell kill) ([7]; 60 mg/kg i.v.): 0.5 | LTS (long term survivors) ([7]; 60 mg/kg i.v.): 0/8 | CR (complete response) ([8]; 30 mg/kg i.v.): 0/7 | LCK (log10 cell kill) ([8]; 30 mg/kg i.v.): 1.26 | LTS (long term survivors) ([8]; 30 mg/kg i.v.): 0/7 | CR (complete response) ([8]; 60 mg/kg i.v.): 0/8 | LCK (log10 cell kill) ([8]; 60 mg/kg i.v.): 1.63 | LTS (long term survivors) ([8]; 60 mg/kg i.v.): 0/8

CC[C@@]1(O)C(=O)OCc2c1cc1n(c2=O)Cc2c-1nc1ccccc1c2/C=N\OCCN [ST1968, 7-(2-amino)ethoxyiminomethylcamptothecin]
CR (complete response) ([2]; 17.5 mg/kg i.v.): 0/7 | LCK (log10 cell kill) ([2]; 17.5 mg/kg i.v.): 1.23 | LTS (long term survivors) ([2]; 17.5 mg/kg i.v.): 0/7 | TVI % (tumor volume inhibition) ([2]; 17.5 mg/kg i.v.): 75% | CR (complete response) ([2]; 30 mg/kg i.v.): 0/8 | LCK (log10 cell kill) ([2]; 30 mg/kg i.v.): 1.67 | LTS (long term survivors) ([2]; 30 mg/kg i.v.): 0/8 | TVI % (tumor volume inhibition) ([2]; 30 mg/kg i.v.): 89% | CR (complete response) ([3]; 30 mg/kg i.v.): 12/12 | LCK (log10 cell kill) ([3]; 30 mg/kg i.v.): >>7.7 | LTS (long term survivors) ([3]; 30 mg/kg i.v.): 12/12 | TVI % (tumor volume inhibition) ([3]; 30 mg/kg i.v.): 100% | CR (complete response) ([4]; 30 mg/kg i.v.): 1/12 | LCK (log10 cell kill) ([4]; 30 mg/kg i.v.): 0.5 | LTS (long term survivors) ([4]; 30 mg/kg i.v.): 0/12 | TVI % (tumor volume inhibition) ([4]; 30 mg/kg i.v.): 77% | CR (complete response) ([5]; 20 mg/kg i.v.): 0/6 | LCK (log10 cell kill) ([5]; 20 mg/kg i.v.): 1.0 | LTS (long term survivors) ([5]; 20 mg/kg i.v.): 0/6 | TVI % (tumor volume inhibition) ([5]; 20 mg/kg i.v.): 65% | CR (complete response) ([5]; 30 mg/kg i.v.): 0/10 | LCK (log10 cell kill) ([5]; 30 mg/kg i.v.): 1.4 | LTS (long term survivors) ([5]; 30 mg/kg i.v.): 0/10 | TVI % (tumor volume inhibition) ([5]; 30 mg/kg i.v.): 68% | CR (complete response) ([1]; 15 mg/kg i.v., q4d × 4): 8/8 | LCK (log10 cell kill) ([1]; 15 mg/kg i.v., q4d × 4): >>3.9 | LTS (long term survivors) ([1]; 15 mg/kg i.v., q4d × 4): 8/8 | TVI % (tumor volume inhibition) ([1]; 15 mg/kg i.v., q4d × 4): 100% | CR (complete response) ([1]; 30 mg/kg i.v., q4d × 4): 8/8 | LCK (log10 cell kill) ([1]; 30 mg/kg i.v., q4d × 4): >>3.9 | LTS (long term survivors) ([1]; 30 mg/kg i.v., q4d × 4): 8/8 | TVI % (tumor volume inhibition) ([1]; 30 mg/kg i.v., q4d × 4): 100% | CR (complete response) ([1]; 35 mg/kg i.v., q4d × 4): 7/7 | LCK (log10 cell kill) ([1]; 35 mg/kg i.v., q4d × 4): >>3.9 | LTS (long term survivors) ([1]; 35 mg/kg i.v., q4d × 4): 7/7 | TVI % (tumor volume inhibition) ([1]; 35 mg/kg i.v., q4d × 4): 100% | CR (complete response) ([6]; 30 mg/kg i.v.): 2/12 | LCK (log10 cell kill) ([6]; 30 mg/kg i.v.): 1.4 | LTS (long term survivors) ([6]; 30 mg/kg i.v.): 0/12 | TVI % (tumor volume inhibition) ([6]; 30 mg/kg i.v.): 92% | CR (complete response) ([7]; 15 mg/kg i.v.): 0/8 | LCK (log10 cell kill) ([7]; 15 mg/kg i.v.): 0.6 | LTS (long term survivors) ([7]; 15 mg/kg i.v.): 0/8 | TVI % (tumor volume inhibition) ([7]; 15 mg/kg i.v.): 84% | CR (complete response) ([7]; 30 mg/kg i.v.): 0/8 | LCK (log10 cell kill) ([7]; 30 mg/kg i.v.): 1.2 | LTS (long term survivors) ([7]; 30 mg/kg i.v.): 1/8 | TVI % (tumor volume inhibition) ([7]; 30 mg/kg i.v.): 90% | CR (complete response) ([7]; 35 mg/kg i.v.): 0/7 | LCK (log10 cell kill) ([7]; 35 mg/kg i.v.): 1.5 | LTS (long term survivors) ([7]; 35 mg/kg i.v.): 2/7 | TVI % (tumor volume inhibition) ([7]; 35 mg/kg i.v.): 96% | CR (complete response) ([8]; 17.5 mg/kg i.v.): 4/8 | LCK (log10 cell kill) ([8]; 17.5 mg/kg i.v.): 3.79 | LTS (long term survivors) ([8]; 17.5 mg/kg i.v.): 4/8 | TVI % (tumor volume inhibition) ([8]; 17.5 mg/kg i.v.): 99% | CR (complete response) ([8]; 35 mg/kg i.v.): 7/7 | LCK (log10 cell kill) ([8]; 35 mg/kg i.v.): >>4.0 | LTS (long term survivors) ([8]; 35 mg/kg i.v.): 7/7 | TVI % (tumor volume inhibition) ([8]; 35 mg/kg i.v.): 100%
